Source: patent US12128040B2, “Selective estrogen receptor degraders” (Eli Lilly and Company, priority 2018, dated 2024)

Experiments:
Assay type in all cases: cell-based
MCF7 ESR1 wild type = experiment: Cell proliferation assay in MCF7; settings: Homo sapiens, seven days, n=2, read-out: Relative IC50 (nM), cell proliferation
Excerpt: The purpose of the following cell proliferation assays generally is to detect whether a test compound has effects on cell proliferation, cell viability, and cytotoxicity in response to treatment in cell culture experiments. Cell proliferation is monitored by monitoring the number of cells over time and the […] assay used allows continuous measurement of cell viability over time.
Seed MCF7 (purchased from ATCC HTB-22) cells at a density of 2,000 cells per well in DMEM phenol red free media 10% FBS (20 μL volume) (charcoal stripped) into a clear bottom 384-well cell culture plate. […] Scan the plates with ACUMEN EXPLORER™ [Laser-scanning fluorescence microplate cytometer manufactured by TTP LABTECH LTD]. The MCF-7 cell line grows forming aggregates, cell number as number of objects may not be able to be used as readout; so the cell number may be evaluated through estimated number of cells (calculated through the area parameter (ratio of total area of the total cells population (a designated range of peak intensity of FL-1 (PI) and the mean area of the single cells population (defined by perimeter)). Determine the IC50 by curve fitting to a four parameter logistic for each output using GENE DATA™.

[1] = tested on: MCF7-ESR1 Y537N mutant cells; experiment: Cell proliferation assay in MCF7-ESR1 Y537N-682; settings: Homo sapiens, seven days, n=6, read-out: Relative IC50 (nM), cell proliferation
ERα receptor = experiment: PRα induction assay in MCF7 cells (ERα agonism); settings: Homo sapiens, 24 hours, agonist mode, read-out: Relative IC50 (μM), PRα induction
Protocol: The purpose of the following PRα induction assay is to determine whether a test compound has agonistic activity against ERα receptor (an agonist would be expected to activate the receptor.)
Culture MCF7 (purchased from ATCC HTB-22) in DMEM media supplemented with 10% FBS, 0.01 mg/mL human insulin 1 and 1% penicillin/streptomycin antibiotics and plate the cells (prior to becoming 70% confluent) in 384-well flat-bottom plates at a density of 4,000 cells per well in 20 μL volume in DMEM phenol red free media containing 10% FBS (charcoal stripped). Incubate the cells overnight in a cell culture incubator (5% CO2, 95% relative humidity at 37° C.) and allow the cells to attach to the plate. The following day, dose the cells with test compound. Use an Echo 555 acoustic dispenser to prepare compound serial dilutions (1:3) in a range from 6 μM to 0.0003 μM. […]
The following day, wash cells with PBS 0.05% TWEEN® 20 (2×20 μL) and incubate with secondary antibody (20 μL/well) (1:1000 dilution, Goat anti-rabbit IgM ALEXA FLUOR™ 488) in PBS 1% BSA for 105 minutes at room temperature. […] Scan plates with ACUMEN EXPLORER™ [Laser-scanning fluorescence microplate cytometer manufactured by TTP LABTECH LTD] to measure progesterone receptor alpha. […]

IC50 (MCF7 ESR1 wild type): 9.24 ± 1.74 nM
IC50 [1]: 7.96 ± 3.69 nM
IC50 (ERα receptor): > 2 µM
Structure (SMILES): O=C(c1ccc(OCCN2CC(CF)C2)cc1)c1c(-c2ccc(C(F)(F)F)cc2F)cnc2cc(O)ccc12 [Example 1, (4-{2-[3-(Fluoromethyl)azetidin-1-yl]ethoxy}phenyl){3-[2-fluoro-4-(trifluoromethyl)phenyl]-7-hydroxyquinolin-4-yl}methanone]
